Test results published in patent US20210029993A1, “SPATIAL INHIBITORS, DETERRENTS AND REPELLENTS FOR MOSQUITOES AND MIDGES” (BEDOUKIAN RESEARCH, INC., priority 2005, published 2021).

Legend:
[1] = test system: mosquitoes and biting midges; conditions: related art; cited from earlier work
[2] = test system: female mosquitoes (Aedes aegypti); assay: Mosquitoes feeding test (Plexiglas module, treated membrane over dyed sucrose/ATP solution); type: in vivo; conditions: feeding relative to control, FIGS. 1 and 3
Description: (§1) The test was conducted at 0900-2100 hours in a walk-in incubator (26° C., 63-80% RH) illuminated by fluorescent lights. Mosquitoes were tested in a two-piece Plexiglas module designed to assess their response to feeding deterrents. The bottom piece of the module was 40×7×4-cm hollow platform supporting six circular wells (diameter=3.8 cm, depth=6 mm). Water (40° C.) flowed through the central cavity of the platform at a rate of 215 ml/min. The top piece of the module consisted of six 4.5×4.0×5.0 cm chambers, the floors of which were fitted with a sliding door positioned over a circular opening 3.5 cm in diameter. Mosquitoes were introduced through an aperture 1 cm in diameter on the front wall of the chambers. For each test, five female mosquitoes (Aedes aegypti) were aspirated into each of five chambers of the top module piece and the apertures were plugged with corks wrapped in plastic film. The wells on the bottom piece of the module were filled with 7 ml of 10% sucrose solution containing ATP (2.9 mg/ml). To each well, 75 μl of green dye (McCormick Food, Hunt Valley, Md.) were added so that those mosquitoes imbibing the sugar solution could be identified when crushed at the end of the tests. Each membrane received 50 ul of acetone or experimental compound solution, applied to 9.6 cm^2 circular area on 0.1 mm-thick membranes made of nylon mesh in a silicone matrix. The membranes were then placed over each well in contact with the sugar solution.
(§2) The circular openings on the floor of each chamber of the top piece of the module were aligned with each membrane-covered well of the bottom piece. The sliding floors of the chambers were then opened allowing mosquitoes access to the membranes. The number of mosquitoes landing on the membranes, and those flying within the apparatus, were recorded each minute for five minutes. After five minutes, any mosquitoes remaining on the membranes were removed with a metal wire, and the door of the floor of each chamber was closed. The top piece of the module was then placed into a freezer for 20 minutes. In the test designed to assess feeding, mosquitoes were removed from the frozen module, crushed on white paper towels, and examined for the presence of green dye to indicate that feeding had occurred. The proportions of mosquitoes feeding per trial were analyzed using a standard generalized linear model with a logit link. Landing and flying scores are repeated measures; five reading were obtained for groups of five mosquitoes. Thus, to maintain independence among the data, the five readings were summed, and then the sums divided by 25 (the maximum score in each category) to create proportions of mosquitoes landing and flying. The proportions were then transferred using the standard variance stabilizing transformation for proportions (sin^−1 √y, where y is the proportion), and analyzed using ANOVA (Analysis of Variables)
In Table 1, weight percent (wt %) refers to the weight of the deterring/repelling/inhibiting compound, or combination of compounds, in the composition used in the tests. […] The weight ratio of the compounds in the combination of compounds is given in parentheses in the “Compound(s)” column of Table 1.

[3] = test system: mosquitoes; assay: Spatial inhibition of mosquitoes, outdoor Mosquito Magnet Liberty Plus trap catch; type: in vivo; conditions: two grams of test compound on absorbent material in CO2 and r-octenol stream of trap; 2-5 days; FIG. 5
Description: Two grams of test compound was absorbed onto pieces of absorbent material. These pieces of absorbent material (fragrance release material from Rhopore Inc.) containing absorbed test compound were then placed in a stream of CO2 and r-octenol being released from an American Biophysics Mosquito Magnet Liberty Plus mosquito trap designed to attract mosquitoes. The test were rotated over a period of 2-5 days in such a manner that both control (trap without test compound) and test compound were tested an equal number of times in each trap employed. The number of mosquitoes caught in the traps with test compounds was compared to the number of mosquitoes caught in the trap with no test compound material present. […] Thus, a lowered percentage is indicative of the increasing ability of the test compounds to inhibit the ability of the mosquitoes sense the target. […] In Table 3, weight percent (wt %) refers to the weight of the deterring/repelling/inhibiting compound, or combination of compounds, in the composition used in the tests. In the “Percent Caught Relative to Control” column in Table 3, a lower percentage is indicative of the increasing ability of the test compounds to inhibit the ability of the mosquitoes sense the target. The weight ratio of the compounds in the combination of compounds is given in parentheses in the “Compound(s)” column of Table 3.

[4] = test system: female mosquitoes (Aedes aegypti); assay: Mosquitoes flying test (Plexiglas module, mosquitoes flying within the apparatus); type: in vivo; conditions: flying relative to control, FIGS. 2 and 4
Description: as §1, §2
In Table 2, weight percent (wt %) refers to the weight of the deterring/repelling/inhibiting compound, or combination of compounds, in the composition used in the tests. […] The weight ratio of the compounds in the combination of compounds is given in parentheses in the “Compound(s)” column of Table 2.

[5] = test system: mosquitoes; assay: Limonene tested against mosquitoes (background); type: in vivo; conditions: background statement

C=CC(C)(O)CCC=C(C)C (stereo not drawn) [linalool]
spatial inhibitor efficacy, in words [1]: act as spatial inhibitors

cis and trans carveol
contact mosquito repellent activity (feeding tests, FIGS. 1 and 3), in words [2]: especially effective as contact mosquito repellents | percent mosquitoes caught relative to the control (relative catch) [3]: about 43%

(+)/(−) limonene oxide
contact mosquito repellent activity (feeding tests, FIGS. 1 and 3), in words [2]: especially effective as contact mosquito repellents | spatial inhibitor activity for mosquitoes (flying tests, FIGS. 2 and 4), in words [4]: particularly effective as spatial inhibitors for mosquitoes

C=C(C)C1CC=C(C)CC1 (stereo not drawn) [limonene]
repellent or spatial inhibitor efficacy against mosquitoes, in words [5]: not found to be either an effective repellent or spatial inhibitor
